According to patent US11214565B2, “Compound, compositions, and methods” (Denali Therapeutics Inc., priority 2015, dated 2022):

Biological target: LRRK2 G2019S enzyme (Homo sapiens (Human), UniProt Q5S007, G2019S)
Assay: LRRK2 G2019S TR-FRET biochemical kinase assay (LRRKtide substrate)
Conditions: 5 nM LRRK2, 134 μM ATP, 60 minute reaction, 23° C.
Method: LRRK2 G2019S enzyme, Substrate (LRRKtide), ATP, TR-FRET dilution buffer, pLRRKtide antibody, 384-well assay plate, and DMSO.
50 mM Tris pH 7.5, 10 mM MgCl2, 1 mM EGTA, 0.01% Brij-35, 2 mM DTT, 5 nM LRRK2, 134 μM ATP, 60 minute reaction time, 23° C. reaction temperature, and 10 μL total reaction volume.
1×TR-FRET dilution buffer, 10 mM EDTA, 2 nM antibody, 23° C. reaction temperature, and 10 μL total reaction volume.
Compound solutions were prepared by initially diluting to 1 mM with DMSO. 35 μL of reference compound solution, 35 μL of test compound solution, and 35 μL HPE were successively added to the source plate (384-well assay plate, Labcyte). The plates were centrifuged at 2500 rpm for 1 minute and sealed in foil. POD was used to perform a 3.162 fold serial dilution and 100 nL of reference compound solution, test compound solution, HPE and ZPE were transferred to assay plates. The assay plate was centrifuged at 2500 rpm for 1 minute, and sealed with foil.
To perform the enzyme reaction, 5 μL of LRRKtide substrate and kinase mixture in assay buffer was added to all wells of the assay plate. The plate was centrifuged to concentrate the mixture at the bottom of the wells. The assay plate was incubated at 23° C. for 20 minutes. Following incubation, 5 μL of 2×ATP in assay buffer was added to each well, and plates were centrifuged to concentrate the mixture at the bottom of the wells. The plate was incubated at 23° C. for 60 minutes.
To perform the detection of the reaction, EDTA completely mixed in TR-FRET dilution buffer was added to antibody reagent. 10 μL of detection reagent was added to all wells of each well of the assay-plate and the plate was centrifuged to concentrate the mixture at the bottom of the wells. The plate was then incubated at 23° C. for 60 minutes. Plates were read on Perkin Elmer Envision 2104 instrument in TR-FRET mode using a 340 nm excitation filter, 520 nm fluorescence emission filter, and 490 or 495 nm terbium emission filter.
B-2, C2, and D-4 respectively.

LRRK2 G2019S enzyme, sequence (Q5S007 whole entry G2019S): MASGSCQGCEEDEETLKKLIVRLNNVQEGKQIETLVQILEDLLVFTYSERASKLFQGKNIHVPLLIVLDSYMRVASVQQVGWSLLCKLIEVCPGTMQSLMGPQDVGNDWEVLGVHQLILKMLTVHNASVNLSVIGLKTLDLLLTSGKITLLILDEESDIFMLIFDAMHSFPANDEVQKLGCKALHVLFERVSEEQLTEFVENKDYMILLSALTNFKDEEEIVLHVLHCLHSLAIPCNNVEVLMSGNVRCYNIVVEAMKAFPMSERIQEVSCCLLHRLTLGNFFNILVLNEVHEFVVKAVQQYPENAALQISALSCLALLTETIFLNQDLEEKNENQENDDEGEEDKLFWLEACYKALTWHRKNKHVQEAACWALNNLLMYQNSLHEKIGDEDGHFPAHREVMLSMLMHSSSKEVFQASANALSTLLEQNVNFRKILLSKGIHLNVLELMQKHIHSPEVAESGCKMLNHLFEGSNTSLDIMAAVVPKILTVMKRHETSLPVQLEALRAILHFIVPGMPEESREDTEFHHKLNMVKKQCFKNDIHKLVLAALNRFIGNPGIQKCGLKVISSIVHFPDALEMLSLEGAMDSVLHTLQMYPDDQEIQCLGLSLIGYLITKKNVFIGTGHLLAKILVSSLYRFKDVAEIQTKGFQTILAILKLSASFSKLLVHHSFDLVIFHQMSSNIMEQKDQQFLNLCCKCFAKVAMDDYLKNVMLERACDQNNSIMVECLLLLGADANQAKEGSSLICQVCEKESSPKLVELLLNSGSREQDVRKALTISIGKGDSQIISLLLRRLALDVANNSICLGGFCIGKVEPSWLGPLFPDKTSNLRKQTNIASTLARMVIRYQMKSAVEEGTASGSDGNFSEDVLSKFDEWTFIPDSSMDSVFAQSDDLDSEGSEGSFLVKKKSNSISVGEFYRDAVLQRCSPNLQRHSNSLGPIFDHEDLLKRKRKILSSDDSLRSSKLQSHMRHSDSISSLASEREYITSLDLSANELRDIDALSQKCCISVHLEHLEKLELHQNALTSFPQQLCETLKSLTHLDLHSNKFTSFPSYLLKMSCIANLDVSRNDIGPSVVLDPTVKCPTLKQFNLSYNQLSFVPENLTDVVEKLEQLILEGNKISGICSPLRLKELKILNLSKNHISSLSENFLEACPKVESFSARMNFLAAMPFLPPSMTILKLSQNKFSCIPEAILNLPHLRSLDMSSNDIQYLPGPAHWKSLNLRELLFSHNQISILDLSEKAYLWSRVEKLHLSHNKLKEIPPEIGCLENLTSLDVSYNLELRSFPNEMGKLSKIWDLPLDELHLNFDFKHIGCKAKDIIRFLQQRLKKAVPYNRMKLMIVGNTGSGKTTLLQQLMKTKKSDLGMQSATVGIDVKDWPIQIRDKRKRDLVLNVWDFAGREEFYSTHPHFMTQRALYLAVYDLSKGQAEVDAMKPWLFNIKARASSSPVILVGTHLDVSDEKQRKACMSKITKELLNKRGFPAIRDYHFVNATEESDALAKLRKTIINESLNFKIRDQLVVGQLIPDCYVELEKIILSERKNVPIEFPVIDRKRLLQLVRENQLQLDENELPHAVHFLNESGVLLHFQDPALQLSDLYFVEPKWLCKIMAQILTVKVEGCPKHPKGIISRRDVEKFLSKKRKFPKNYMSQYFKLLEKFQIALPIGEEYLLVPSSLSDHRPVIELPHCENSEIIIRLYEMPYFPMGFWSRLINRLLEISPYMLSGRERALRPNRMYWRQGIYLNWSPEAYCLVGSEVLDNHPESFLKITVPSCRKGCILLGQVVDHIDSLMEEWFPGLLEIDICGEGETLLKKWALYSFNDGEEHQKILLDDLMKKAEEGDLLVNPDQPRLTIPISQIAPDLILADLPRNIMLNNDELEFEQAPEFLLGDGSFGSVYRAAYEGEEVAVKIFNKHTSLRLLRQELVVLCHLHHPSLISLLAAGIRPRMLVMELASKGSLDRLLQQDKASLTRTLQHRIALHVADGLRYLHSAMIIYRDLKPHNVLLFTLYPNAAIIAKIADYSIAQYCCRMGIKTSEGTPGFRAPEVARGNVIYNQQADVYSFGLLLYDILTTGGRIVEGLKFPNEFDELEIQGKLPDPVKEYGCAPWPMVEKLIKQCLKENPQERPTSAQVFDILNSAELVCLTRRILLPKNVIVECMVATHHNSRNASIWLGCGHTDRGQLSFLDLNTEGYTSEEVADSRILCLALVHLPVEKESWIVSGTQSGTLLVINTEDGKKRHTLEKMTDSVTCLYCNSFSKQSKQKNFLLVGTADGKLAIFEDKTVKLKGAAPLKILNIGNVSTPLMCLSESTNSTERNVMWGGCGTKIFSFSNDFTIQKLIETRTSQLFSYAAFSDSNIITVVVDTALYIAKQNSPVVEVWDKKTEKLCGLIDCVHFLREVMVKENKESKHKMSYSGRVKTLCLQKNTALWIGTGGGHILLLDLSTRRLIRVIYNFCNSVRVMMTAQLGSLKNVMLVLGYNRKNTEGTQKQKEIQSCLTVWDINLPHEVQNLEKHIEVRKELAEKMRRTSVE

SMILES	IC50 (Table D-4) [nM]	IC50 (Table A-2) [nM]
CCNc1nc(Nc2cnn(C3CCn4ccnc43)c2C)ncc1C(F)(F)F (racemic) [Compound D-22, N2-(1-(6,7-dihydro-5H-pyrrolo[1,2-a]imidazol-7-yl)-5-methyl-1H-pyrazol-4-yl)-N4-ethyl-5-(trifluoromethyl)pyrimidine-2,4-diamine]	< 30	
Cc1nn(C(C)(C)C#N)cc1Nc1ncc(C(F)(F)F)c([C@@H]2C[C@H]2F)n1 (single isomer, unassigned) [Compound A-12, 2-(4-((4-(2-fluorocyclopropyl)-5-(trifluoromethyl)pyrimidin-2-yl)amino)-3-methyl-1H-pyrazol-1-yl)-2-methylpropanenitrile]		> 60
Cc1nn(C(C)(C)C#N)cc1Nc1ncc(C(F)(F)F)c([C@H]2C[C@@H]2F)n1 (single isomer, unassigned) [Compound A-13, 2-(4-((4-(2-fluorocyclopropyl)-5-(trifluoromethyl)pyrimidin-2-yl)amino)-3-methyl-1H-pyrazol-1-yl)-2-methylpropanenitrile]		> 60
CC1(O)CCCC1n1ncc(Nc2ncc(C(F)(F)F)c(C3CC3)n2)c1Cl (single isomer, unassigned) [Compound A-49, 2-(5-chloro-4-((4-cyclopropyl-5-(trifluoromethyl)pyrimidin-2-yl)amino)-1H-pyrazol-1-yl)-1-methylcyclopentanol]		> 60
CC1(O)CCCC1n1ncc(Nc2ncc(C(F)(F)F)c(C3CC3)n2)c1Cl (single isomer, unassigned) [Compound A-50, 2-(5-chloro-4-((4-cyclopropyl-5-(trifluoromethyl)pyrimidin-2-yl)amino)-1H-pyrazol-1-yl)-1-methylcyclopentanol]		< 30
CCN1CC(n2ncc(Nc3ncc(C(F)(F)F)c(C4CC4)n3)c2C)CCC1=O (single isomer, unassigned) [Compound A-59]		< 30
CCN1CC(n2ncc(Nc3ncc(C(F)(F)F)c(C4CC4)n3)c2C)CCC1=O (single isomer, unassigned) [Compound A-60]		< 30
CCN1CC(n2cc(Nc3ncc(C(F)(F)F)c(C4CC4)n3)c(C)n2)CCC1=O (single isomer, unassigned) [Compound A-61]		30 to 60
CCN1CC(n2cc(Nc3ncc(C(F)(F)F)c(C4CC4)n3)c(C)n2)CCC1=O (single isomer, unassigned) [Compound A-62]		> 60
FC(F)(F)c1cnc(Nc2cnn([C@H]3CN(C4COC4)CCC3(F)F)c2Cl)nc1C1CC1 (single isomer, unassigned) [Compound A-64, N-(5-chloro-1-(4,4-difluoro-1-(oxetan-3-yl)piperidin-3-yl)-1H-pyrazol-4-yl)-4-cyclopropyl-5-(trifluoromethyl)pyrimidin-2-amine]		30 to 60
FC(F)(F)c1cnc(Nc2cnn([C@@H]3CN(C4COC4)CCC3(F)F)c2Cl)nc1C1CC1 (single isomer, unassigned) [Compound A-65, N-(5-chloro-1-(4,4-difluoro-1-(oxetan-3-yl)piperidin-3-yl)-1H-pyrazol-4-yl)-4-cyclopropyl-5-(trifluoromethyl)pyrimidin-2-amine]		< 30
Cc1nn([C@@H]2CCn3ccnc32)cc1Nc1ncc(C(F)(F)F)c(C2CC2)n1 (single isomer, unassigned) [Compound A-78]		> 60
Cc1nn([C@H]2CCn3ccnc32)cc1Nc1ncc(C(F)(F)F)c(C2CC2)n1 (single isomer, unassigned) [Compound A-79]		< 30
Cc1nn([C@@H]2CCn3cnnc32)cc1Nc1ncc(C(F)(F)F)c(C2CC2)n1 (single isomer, unassigned) [Compound A-82]		< 30
Cc1nn([C@H]2CCn3cnnc32)cc1Nc1ncc(C(F)(F)F)c(C2CC2)n1 (single isomer, unassigned) [Compound A-83]		< 30
CNc1nc(Nc2cn(C3CCn4ccnc43)nc2C)ncc1C(F)(F)F (single isomer, unassigned) [Compound D-3, N2-[1-[6,7-dihydro-5H-pyrrolo[1,2-a]imidazol-7-yl]-3-methyl-1H-pyrazol-4-yl]-N4-methyl-5-(trifluoromethyl)pyrimidine-2,4-diamine]	> 60	

SMILES	IC50 (Table D-4) [nM]	IC50 (Table A-2) [nM]
CNc1nc(Nc2cn(C3CCn4ccnc43)nc2C)ncc1C(F)(F)F (single isomer, unassigned) [Compound D-4, N2-[1-[6,7-dihydro-5H-pyrrolo[1,2-a]imidazol-7-yl]-3-methyl-1H-pyrazol-4-yl]-N4-methyl-5-(trifluoromethyl)pyrimidine-2,4-diamine]	< 30	
CCNc1nc(Nc2cn(C3CCn4ccnc43)nc2C)ncc1C(F)(F)F (single isomer, unassigned) [Compound D-23, N2-(1-(6,7-dihydro-5H-pyrrolo[1,2-a]imidazol-7-yl)-3-methyl-1H-pyrazol-4-yl)-N4-ethyl-5-(trifluoromethyl)pyrimidine-2,4-diamine]	> 60	
CCNc1nc(Nc2cn(C3CCn4ccnc43)nc2C)ncc1C(F)(F)F (single isomer, unassigned) [Compound D-24, N2-(1-(6,7-dihydro-5H-pyrrolo[1,2-a]imidazol-7-yl)-3-methyl-1H-pyrazol-4-yl)-N4-ethyl-5-(trifluoromethyl)pyrimidine-2,4-diamine]	< 30	
Cc1nn(C(C)(C)C#N)cc1Nc1ncc(C(F)(F)F)c(C2CC2)n1 [Compound A-1, 2-[4-[(5-trifluoromethyl-4-cyclopropyl-pyrimidin-2-yl)amino]-3-methyl-pyrazol-1-yl]-2-methyl-propanenitrile]		< 30
Cc1nn(C(C)(C)C#N)cc1Nc1ncc(Cl)c(C2CC2)n1 [Compound A-2, 2-[4-[(5-chloro-4-cyclopropyl-pyrimidin-2-yl)amino]-3-methyl-pyrazol-1-yl]-2-methyl-propanenitrile]		< 30
Cc1nn(C(C)(C)C#N)cc1Nc1ncc(C#N)c(C2CC2)n1 [Compound A-3, 2-[[1-(1-cyano-1-methyl-ethyl)-3-methyl-pyrazol-4-yl]amino]-4-cyclopropyl-pyrimidine-5-carbonitrile]		> 60
Cc1nn(C(C)(C)C#N)cc1Nc1ncc(C(F)(F)F)c(C2=CCCC2)n1 [Compound A-4, 2-[4-[[4-(cyclopenten-1-yl)-5-(trifluoromethyl)pyrimidin-2-yl]amino]-3-methyl-pyrazol-1-yl]-2-methyl-propanenitrile]		30 to 60
Cn1nc(C(C)(C)C#N)cc1Nc1ncc(C(F)(F)F)c(C2CC2)n1 [Compound A-5, 2-(5-((4-cyclopropyl-5-(trifluoromethyl)pyrimidin-2-yl)amino)-1-methyl-1H-pyrazol-3-yl)-2-methylpropanenitrile]		30 to 60
Cc1nn(S(C)(=O)=O)cc1Nc1ncc(C(F)(F)F)c(C2CC2)n1 [Compound A-7, 4-cyclopropyl-N-(3-methyl-1-methylsulfonyl-pyrazol-4-yl)-5-(trifluoromethyl)pyrimidin-2-amine]		< 30
Cc1nn(C(C)(C)c2ncn(C)n2)cc1Nc1ncc(C(F)(F)F)c(C2CC2)n1 [Compound A-8, 4-cyclopropyl-N-(3-methyl-1-(2-(1-methyl-1H-1,2,4-triazol-3-yl)propan-2-yl)-1H-pyrazol-4-yl)-5-(trifluoromethyl)pyrimidin-2-amine]		< 30
Cc1nn(C(C)(C)C#N)cc1Nc1ncc(C(F)(F)F)c(-c2cnn(C)c2)n1 [Compound A-9, 2-methyl-2-(3-methyl-4-((4-(1-methyl-1H-pyrazol-4-yl)-5-(trifluoromethyl)pyrimidin-2-yl)amino)-1H-pyrazol-1-yl)propanenitrile]		30 to 60
Cc1nn(C(C)(C)C#N)cc1Nc1ncc(C(F)(F)F)c(C2CCCC2)n1 [Compound A-10, 2-[4-[[4-cyclopentyl-5-(trifluoromethyl)pyrimidin-2-yl]amino]-3-methyl-pyrazol-1-yl]-2-methyl-propanenitrile]		> 60
Cc1nn(C(C)(C)C#N)cc1Nc1ncc(C(F)(F)F)c(C2CCC2)n1 [Compound A-11, 2-[4-[[4-cyclobutyl-5-(trifluoromethyl)pyrimidin-2-yl]amino]-3-methyl-pyrazol-1-yl]-2-methyl-propanenitrile]		30 to 60
Cc1nn(C2COC2)cc1Nc1ncc(C(F)(F)F)c(C2CC2)n1 [Compound A-14, 4-cyclopropyl-N-[3-methyl-1-(oxetan-3-yl)pyrazol-4-yl]-5-(trifluoromethyl)pyrimidin-2-amine]		< 30
Cc1c(Nc2ncc(C(F)(F)F)c(C3CC3)n2)cnn1C1COC1 [Compound A-15, 4-cyclopropyl-N-[5-methyl-1-(oxetan-3-yl)pyrazol-4-yl]-5-(trifluoromethyl)pyrimidin-2-amine]		< 30
